Results reported in patent US20070072814A1, “Method and means of modulating lipid metabolism” (priority 2003, published 2007).

Assays:
Assay type in all cases: in vivo, human
LDL cholesterol = experiment: Clinical trial: serum LDL-cholesterol (enzymatic and immunologic assays); conditions: patient serum
Source text: (§1) A group of […] patients were selected for therapy to alter lipid metabolism relative to a control group of 20 ‘matched’patients who were not treated (Patient Control Group).
(§2) The therapy group comprised 23 male and 7 female patients with an average age of 55±1.1 years. The patient control group was comprised of 20 patients with IHD, of which 15 were male and 5 were female with an average age of 53±1.2 years. Each patient gave written consent for his/her participation in the trial.
(§3) All patients had angina of II-III class of Canadian Cardiological Society classification.
(§4) Apart from the degree of generalization or severity of atherosclerosis, all groups were matched not only in age, gender and risk factors but also in medication, nitrates, β-blockers, angiotensin-converting enzyme inhibitors etc.
(§5) Each therapy was administered for 8 weeks. The blood of the patients of all four groups was tested every two weeks.
(§6) The level of LDL was estimated in two independent parameters: LDL-cholesterol measured by combination of enzymatic and immunologic assays, and Apo-B measured by immuno-turbometric assay. These assays were performed using commercially available kits which include goat anti-human apo-B polyclonals (LDL-Direct™, Randox Labs Ltd UK, EZ LDL™ Cat No-358-A, Sigma UK).

Total cholesterol = experiment: Clinical trial: serum total cholesterol of IHD patients under therapy; conditions: patient serum; for cholesterol lowering effect (in words): therapy administered for 8 weeks
Source text: as §1, §2
(§7) All patients had angina of II-III class of Canadian Cardiological Society classification. […] IHD diagnosis for the other 15 patients with a recent history of unstable angina in the first group and 10 in the patient control group was confirmed by coronary angiography, which detected 70% or more of arterial stenosis.
as §4, §5

Triglycerides = experiment: Clinical trial: serum triglycerides of IHD patients under therapy; conditions: patient serum
Source text: as §1, §2, §3, §4, §5

ApoA = experiment: Clinical trial: serum ApoA of IHD patients under therapy; conditions: patient serum
Source text: as §1, §2, §3, §4, §5

ApoB = experiment: Clinical trial: serum Apo-B (immuno-turbometric assay); conditions: patient serum
Source text: as §1, §2, §7, §4, §5, §6

CC[C@H]1OC(=O)[C@H](C)[C@@H](O[C@H]2C[C@@](C)(OC)[C@@H](O)[C@H](C)O2)[C@H](C)[C@@H](O[C@@H]2O[C@H](C)C[C@H](N(C)C)[C@H]2O)[C@](C)(O)C[C@@H](C)CN(C)[C@H](C)[C@@H](O)[C@]1(C)O [Group A, azithromycin]
LDL cholesterol (LDL cholesterol; 1 month after treatment): 44 mg/dL | LDL cholesterol (% of before-treatment value) (LDL cholesterol; 1 month after treatment): 129% | LDL cholesterol (LDL cholesterol; 2 months after treatment): 41 mg/dL | LDL cholesterol (% of before-treatment value) (LDL cholesterol; 2 months after treatment): 121% | LDL cholesterol (LDL cholesterol; 3 months after treatment): 40 mg/dL | LDL cholesterol (% of before-treatment value) (LDL cholesterol; 3 months after treatment): 118% | LDL cholesterol (LDL cholesterol; Treatment 4 weeks): 37 mg/dL | LDL cholesterol (% of before-treatment value) (LDL cholesterol; Treatment 4 weeks): 109% | LDL cholesterol (LDL cholesterol; Treatment 6 weeks): 38 mg/dL | LDL cholesterol (% of before-treatment value) (LDL cholesterol; Treatment 6 weeks): 112% | LDL cholesterol (LDL cholesterol; Treatment 8 weeks): 39 mg/dL | LDL cholesterol (% of before-treatment value) (LDL cholesterol; Treatment 8 weeks): 115% | Total cholesterol (Total cholesterol; 1 month after treatment): 197 mg/dL | Total cholesterol (% of before-treatment value) (Total cholesterol; 1 month after treatment): 96% | Total cholesterol (Total cholesterol; 2 months after treatment): 196 mg/dL | Total cholesterol (% of before-treatment value) (Total cholesterol; 2 months after treatment): 96% | Total cholesterol (Total cholesterol; 3 months after treatment): 198 mg/dL | Total cholesterol (% of before-treatment value) (Total cholesterol; 3 months after treatment): 97% | Total cholesterol (Total cholesterol; Treatment 4 weeks): 186 mg/dL | Total cholesterol (% of before-treatment value) (Total cholesterol; Treatment 4 weeks): 91% | Total cholesterol (Total cholesterol; Treatment 6 weeks): 190 mg/dL | Total cholesterol (% of before-treatment value) (Total cholesterol; Treatment 6 weeks): 93% | Total cholesterol (Total cholesterol; Treatment 8 weeks): 191 mg/dL | Total cholesterol (% of before-treatment value) (Total cholesterol; Treatment 8 weeks): 93% | cholesterol lowering effect (in words) (Total cholesterol): no cholesterol lowering effect | Triglycerides (Triglycerides; 1 month after treatment): 106 mg/dL | Triglycerides (% of before-treatment value) (Triglycerides; 1 month after treatment): 91% | Triglycerides (Triglycerides; 2 months after treatment): 118 mg/dL | Triglycerides (% of before-treatment value) (Triglycerides; 2 months after treatment): 101% | Triglycerides (Triglycerides; 3 months after treatment): 109 mg/dL | Triglycerides (% of before-treatment value) (Triglycerides; 3 months after treatment): 93% | Triglycerides (Triglycerides; Treatment 4 weeks): 112 mg/dL | Triglycerides (% of before-treatment value) (Triglycerides; Treatment 4 weeks): 96% | Triglycerides (Triglycerides; Treatment 6 weeks): 101 mg/dL | Triglycerides (% of before-treatment value) (Triglycerides; Treatment 6 weeks): 86% | Triglycerides (Triglycerides; Treatment 8 weeks): 99 mg/dL | Triglycerides (% of before-treatment value) (Triglycerides; Treatment 8 weeks): 85% | ApoA (ApoA; 1 month after treatment): 145 mg/dL | ApoA (% of before-treatment value) (ApoA; 1 month after treatment): 90% | ApoA (ApoA; 2 months after treatment): 162 mg/dL | ApoA (% of before-treatment value) (ApoA; 2 months after treatment): 101% | ApoA (ApoA; 3 months after treatment): 161 mg/dL | ApoA (% of before-treatment value) (ApoA; 3 months after treatment): 100% | ApoA (ApoA; Treatment 4 weeks): 142 mg/dL | ApoA (% of before-treatment value) (ApoA; Treatment 4 weeks): 88% | ApoA (ApoA; Treatment 6 weeks): 143 mg/dL | ApoA (% of before-treatment value) (ApoA; Treatment 6 weeks): 89% | ApoA (ApoA; Treatment 8 weeks): 141 mg/dL | ApoA (% of before-treatment value) (ApoA; Treatment 8 weeks): 88% | ApoB (ApoB; 1 month after treatment): 115 mg/dL | ApoB (% of before-treatment value) (ApoB; 1 month after treatment): 92% | ApoB (ApoB; 2 months after treatment): 133 mg/dL | ApoB (% of before-treatment value) (ApoB; 2 months after treatment): 106% | ApoB (ApoB; 3 months after treatment): 131 mg/dL | ApoB (% of before-treatment value) (ApoB; 3 months after treatment): 105% | ApoB (ApoB; Treatment 4 weeks): 109 mg/dL | ApoB (% of before-treatment value) (ApoB; Treatment 4 weeks): 87% | ApoB (ApoB; Treatment 6 weeks): 110 mg/dL | ApoB (% of before-treatment value) (ApoB; Treatment 6 weeks): 88% | ApoB (ApoB; Treatment 8 weeks): 113 mg/dL | ApoB (% of before-treatment value) (ApoB; Treatment 8 weeks): 90%

CC(=O)Oc1ccccc1C(=O)O [Group D, acetylsalicylic acid]
LDL cholesterol (LDL cholesterol; 1 month after treatment): 44 mg/dL | LDL cholesterol (LDL cholesterol; 2 months after treatment): 38 mg/dL | LDL cholesterol (% of before-treatment value) (LDL cholesterol; 2 months after treatment): 103% | LDL cholesterol (LDL cholesterol; 3 months after treatment): 43 mg/dL | LDL cholesterol (LDL cholesterol; Treatment 2 weeks): 41 mg/dL | LDL cholesterol (LDL cholesterol; Treatment 4 weeks): 41 mg/dL | Total cholesterol (Total cholesterol; 1 month after treatment): 221 mg/dL | Total cholesterol (% of before-treatment value) (Total cholesterol; 1 month after treatment): 87% | Total cholesterol (Total cholesterol; 2 months after treatment): 223 mg/dL | Total cholesterol (% of before-treatment value) (Total cholesterol; 2 months after treatment): 88% | Total cholesterol (Total cholesterol; 3 months after treatment): 234 mg/dL | Total cholesterol (% of before-treatment value) (Total cholesterol; 3 months after treatment): 92% | Total cholesterol (Total cholesterol; Treatment 2 weeks): 233 mg/dL | Total cholesterol (% of before-treatment value) (Total cholesterol; Treatment 2 weeks): 92% | Total cholesterol (Total cholesterol; Treatment 4 weeks): 210 mg/dL | Total cholesterol (% of before-treatment value) (Total cholesterol; Treatment 4 weeks): 83% | cholesterol lowering effect (in words) (Total cholesterol): no cholesterol lowering effect | Triglycerides (Triglycerides; 1 month after treatment): 146 mg/dL | Triglycerides (% of before-treatment value) (Triglycerides; 1 month after treatment): 126% | Triglycerides (Triglycerides; 2 months after treatment): 128 mg/dL | Triglycerides (Triglycerides; 3 months after treatment): 134 mg/dL | Triglycerides (Triglycerides; Treatment 2 weeks): 152 mg/dL | Triglycerides (% of before-treatment value) (Triglycerides; Treatment 2 weeks): 131% | Triglycerides (Triglycerides; Treatment 4 weeks): 111 mg/dL | Triglycerides (% of before-treatment value) (Triglycerides; Treatment 4 weeks): 96% | ApoA (ApoA; 1 month after treatment): 184 mg/dL | ApoA (ApoA; 2 months after treatment): 166 mg/dL | ApoA (% of before-treatment value) (ApoA; 2 months after treatment): 106% | ApoA (ApoA; 3 months after treatment): 179 mg/dL | ApoA (ApoA; Treatment 2 weeks): 157 mg/dL | ApoA (% of before-treatment value) (ApoA; Treatment 2 weeks): 99% | ApoA (ApoA; Treatment 4 weeks): 151 mg/dL | ApoA (% of before-treatment value) (ApoA; Treatment 4 weeks): 96% | ApoB (ApoB; 1 month after treatment): 131 mg/dL | ApoB (% of before-treatment value) (ApoB; 1 month after treatment): 106% | ApoB (ApoB; 2 months after treatment): 142 mg/dL | ApoB (% of before-treatment value) (ApoB; 2 months after treatment): 114% | ApoB (ApoB; 3 months after treatment): 111 mg/dL | ApoB (% of before-treatment value) (ApoB; 3 months after treatment): 90% | ApoB (ApoB; Treatment 2 weeks): 137 mg/dL | ApoB (% of before-treatment value) (ApoB; Treatment 2 weeks): 110% | ApoB (ApoB; Treatment 4 weeks): 113 mg/dL | ApoB (% of before-treatment value) (ApoB; Treatment 4 weeks): 91%
